{"source": "patent US10370364B1", "about": "“Substituted chromenes for treatment of fibrosis or non-alcoholic steatohepatitis” (OSTEONEUROGEN INC., priority 2018, dated 2019)", "key": {"[1]": {"system": "ONGHEPA1 cells", "assay": "TGF-β-induced fibrosis of ONGHEPA1 cells (differentiation into myofibroblasts, phase contrast microscope)", "type": "cell-based, rat", "conditions": "TGF-β 5 ng/ml, compound 50 μM in DMSO, 24 hours", "protocol": "In order to examine the effect of a compound of the present invention against fibrosis, ONGHEPA1 cells (KCTC13086BP), which are mesenchymal stem cells (MSCs) derived from rat hepatic stellate cells (HSCs) and capable of proliferating indefinitely, were first used. Fibrosis of the ONGHEPA1 cells can be induced by a simple method of treating the cells with TGF-β (transforming growth factor beta) or PDGF (platelet-derived growth factor).\nThe ONGHEPA1 cells were seeded into medium, cultured for 24 hours, and then treated with TGF-β (5 ng/ml) to induce cell fibrosis. Alternatively, the cells were co-treated with TGF-β and the compound of the present invention (50 μM in DMSO) and cultured for 24 hours. Next, the degree of fibrosis of the cells, that is, the degree of differentiation into myofibroblasts, was examined with a phase contrast microscope (200×).\nIn this regard, the detailed experimental method followed the paper of Kim et al. (Han-Soo Kim, Jun-Hwan Kim, Ji Yong Lee, Young-Min Yoon, Ik-Hwan Kim, Ho-Sup Yoon, Byung-Soo Youn. Small molecule-mediated reprogramming of epithelial-mesenchymal transition thereby blocking fibrosis. bioRxiv preprint first posted online Feb. 16, 2017; doi: http://dx.doi.org/10.1101/106591).\nThe effects of the following comparative compounds against fibrosis were examined in the same manner as described in Experimental Example 1-1 above."}, "[2]": {"system": "Vimentin", "assay": "Vimentin expression in A549 cells by real-time PCR", "type": "cell-based, human", "conditions": "A549, TGF-β plus compound", "protocol": "In addition, in order to examine whether the effect as described above would be attributable to the effect against EMT, the expression patterns of Snail and Vimentin, which are representative markers of EMT, in the cells of each test group, were analyzed by real-time PCR."}, "[3]": {"assay": "Metabolic stability in rat liver microsomes with NADPH", "type": "in vitro ADME", "conditions": "rat, rat liver microsomes", "protocol": "(§1) The compound of the present invention was incubated with rat liver microsomes and NADPH, and then the rate of elimination of the compound was measured, thereby determining the intrinsic clearance value (CLint value) of the compound."}, "[4]": {"system": "Rat liver microsomes", "assay": "Metabolic stability in rat liver microsomes with NADPH", "type": "in vitro ADME", "conditions": "Rat liver microsomes", "protocol": "as §1"}, "[5]": {"system": "C57BL/6 mice", "assay": "Bleomycin-induced pulmonary fibrosis animal model", "type": "in vivo", "conditions": "for Mean Collagen % (histopathology collagen morphometry, left lung): Sirius red", "from_the_text": "5-week-old male C57BL/6 mice (weighed 18.2 to 20.5 g) (KOATECH, Korea) were used as experimental animals and divided into several groups, each consisting of 5 animals.\nThe experimental animals were housed in a housing box having a size of 369 L×156 W×132H (mm) (EU, USA, UK GL compliance) made of a polysulfone material in a SPF (Specific Pathogen Free) and BSL (Bio Safety Level) 2 grade facility. The number of animals in each housing box was 2 to 3 during the period of quarantine and acclimatization and was also 2 to 3 during the experimental period, and the housing conditions were set to a temperature of 22±2° C., a relative humidity of 50.0±15.0%, a ventilation cycle of 10 to 20 times/hr, a light-dark cycle (a photoperiod) of 12 hr/day (07:00 to 19:00), and an illumination intensity of 150 to 300 Lux.\nPulmonary fibrosis was induced by injecting a bleomycin solution directly into the lungs via the trachea according to the intratracheal instillation (IT) method of Kremer, Laxer and Berkman et al. Specifically, C57BL/6J mice were anesthetized through inhalation with 70% N2O and 30% O2 gas and 1.5% isoflurane, and the skin of the anterior neck thereof was excised and the organs under the muscle thereof were exposed and then carefully excised using ophthalmic surgical scissors. 50 μL of a solution of bleomycin in distilled water was injected directly into the lungs all at once via the excised organ by use of a 1 mL syringe fitted with a 19-gauge injection needle having a blunt tip. Immediately after the injection, the excised skin of the anterior neck was sutured and the mice were allowed to recover from the anesthetic, and then housed in a general housing cage. The administration of bleomycin was performed using a visual instillobot, and bleomycin-HCl 40 μg/50 μL was administered once and a pulmonary fibrosis induction period of 12 days was set.\nThe compound of the present invention was used after dissolution in 30% HPCD aqueous solution (Formulation Example 5), and the dose for each individual was calculated based on the recent body weight thereof. 12 Days after the administration of bleomycin, the compound of the present invention was administered once a day (5 times a week) for 2 weeks. As a control, pirfenidone which is a therapeutic agent for idiopathic pulmonary fibrosis was administered in the same manner.\nOn 15 days after administration of the compound, the mice were sacrificed, and then the right lung of each mouse was dissected and the weight thereof was measured. […] In particular, it is noted that the inhibitory effect of the compound in the group administered at 10 mpk was the highest compared to that in the group administered at 50 or 100 mpk and was also higher than that in the group administered with pirfenidone 100 mpk.\nThe amounts of hydroxyproline (HP) and collagen in the dissected right lung were measured using a known method.\nHistopathology collagen morphometry of the dissected left lung tissue was performed using a known method (calculating the area of collagen in an optical image obtained by Sirius red staining of the lung tissue sample).\nThe pathological conditions of the left lung tissue dissected using a known method were examined by H&E and Sirius Red staining. […] In particular, it is noted that the inhibitory effect of the compound in the group administered at 10 mpk was the highest compared to that in the groups administered at other concentrations.\nIn order to examine the effect of each treatment in this Experiment on the liver, the liver of each of the sacrificed mice was dissected, and the pathological conditions of the liver tissue were examined by H&E staining."}, "[6]": {"assay": "Concentration of compound in plasma and lung of bleomycin fibrotic mice", "type": "in vivo", "conditions": "1 hour after final administration; pirfenidone 100 mpk, Compound 1 10-100 mpk PO", "protocol": "The amounts of the compound present in the plasma and lung of each of the sacrificed mice (finally administered with each compound at 1 hour before sacrifice) were measured. […] If it is attempted to formulate the compound of the present invention in various manners, it is expected that the compound of the present invention can effectively treat fibrosis even at lower concentrations."}, "[7]": {"biological_target": "T1, CYP2C9 (Homo sapiens, UniProt P11712)", "T1 sequence (P11712 whole entry)": "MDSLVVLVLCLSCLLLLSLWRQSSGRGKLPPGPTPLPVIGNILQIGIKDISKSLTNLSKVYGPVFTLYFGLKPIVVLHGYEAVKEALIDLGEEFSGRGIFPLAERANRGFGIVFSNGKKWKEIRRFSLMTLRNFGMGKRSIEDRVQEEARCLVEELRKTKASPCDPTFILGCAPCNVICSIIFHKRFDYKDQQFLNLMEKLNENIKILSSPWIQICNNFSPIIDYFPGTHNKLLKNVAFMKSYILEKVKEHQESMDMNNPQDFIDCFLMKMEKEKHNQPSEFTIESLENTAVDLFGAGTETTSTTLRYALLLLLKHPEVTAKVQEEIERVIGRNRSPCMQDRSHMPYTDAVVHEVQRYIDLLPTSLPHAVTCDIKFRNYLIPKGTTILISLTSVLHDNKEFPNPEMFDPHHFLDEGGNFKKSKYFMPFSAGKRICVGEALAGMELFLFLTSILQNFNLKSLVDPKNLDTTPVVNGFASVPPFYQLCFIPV"}, "[8]": {"biological_target": "T1, CYP2C9", "assay": "CYP450 inhibition, CYP2C9"}}, "data": [{"smiles": "COc1ccc(-c2cc(=O)c3c(O)c(OC)c(OCCN4CCNC(=O)C4)cc3o2)cc1OC", "note": "[Compound 1, 4-(2-((2-(3,4-dimethoxyphenyl)-5-hydroxy-6-methoxy-4-oxo-4H-chromen-7-yl)oxy)ethyl)piperazin-2-one]", "values": [{"measurement": "degree of fibrosis of the cells (differentiation into myofibroblasts)", "setting": "[1]", "result": "showed no fibrosis symptom"}, {"measurement": "expression of Vimentin", "setting": "[2]", "result": "significantly inhibited"}, {"measurement": "microsomal CLint", "setting": "[3]; read-out: CL int", "result": 19.4, "unit": "µL/min/mg"}, {"measurement": "half-life", "setting": "[3]; read-out: t½", "result": 1.19, "unit": "h"}, {"measurement": "Clearance value", "setting": "[4]", "result": "Moderate"}, {"measurement": "metabolic stability (in words)", "setting": "[4]; NADPH", "result": "metabolically stable such that it could be comparable with atenolol"}, {"measurement": "Protection Collagen %", "setting": "[5]; 10 mpk PO", "result": 59, "unit": "%"}, {"measurement": "Mean Collagen % (histopathology collagen morphometry, left lung)", "setting": "[5]; 10 mpk PO", "result": 2.8, "unit": "%"}, {"measurement": "inhibitory effect on right lung weight, comparison of dose groups", "setting": "[5]; 10 mpk compared to 50 or 100 mpk and pirfenidone 100 mpk", "result": "the highest"}, {"measurement": "inhibitory effect on lung fibrosis symptoms, comparison of dose groups", "setting": "[5]; 10 mpk compared to other concentrations", "result": "the highest"}, {"measurement": "Protection Collagen %", "setting": "[5]; 50 mpk PO", "result": 66, "unit": "%"}, {"measurement": "Mean Collagen % (histopathology collagen morphometry, left lung)", "setting": "[5]; 50 mpk PO", "result": 2.4, "unit": "%"}, {"measurement": "Protection Collagen %", "setting": "[5]; 100 mpk PO", "result": 59, "unit": "%"}, {"measurement": "Mean Collagen % (histopathology collagen morphometry, left lung)", "setting": "[5]; 100 mpk PO", "result": 2.8, "unit": "%"}, {"measurement": "amount of collagen in right lung", "setting": "[5]; bleomycin mice, 10-100 mpk PO", "result": "significantly inhibited this increase"}, {"measurement": "amount of hydroxyproline (HP) in right lung", "setting": "[5]; bleomycin mice, 10-100 mpk PO", "result": "significantly inhibited this increase"}, {"measurement": "fibrosis symptoms of left lung tissue, H&E and Sirius Red staining", "setting": "[5]; bleomycin mice, 10-100 mpk PO", "result": "significantly inhibited such fibrosis symptoms"}, {"measurement": "increase of collagen in left lung tissue, morphometry (in words)", "setting": "[5]; bleomycin mice, 10-100 mpk PO", "result": "significantly inhibited this increase"}, {"measurement": "increase in the right lung weight", "setting": "[5]; bleomycin mice, 10-100 mpk PO in 30% HPCD, once a day 5 times a week for 2 weeks", "result": "significantly inhibited"}, {"measurement": "pathological condition of liver tissue, H&E staining", "setting": "[5]; bleomycin mice, 50 mpk", "result": "showed hepatotoxic symptoms"}, {"measurement": "pathological condition of liver tissue, H&E staining", "setting": "[5]; bleomycin mice, 100 mpk", "result": "showed hepatotoxic symptoms"}, {"measurement": "inhibitory effect on collagen, comparison of dose groups", "setting": "[5]; group administered at 100 mpk", "result": "highest"}, {"measurement": "inhibitory effect on hydroxyproline, comparison of dose groups", "setting": "[5]; group administered at 100 mpk", "result": "highest"}, {"measurement": "pathological condition of liver tissue, H&E staining", "setting": "[5]; mouse, in vivo, 10 mg/kg", "result": "showed the same condition as that of normal liver tissue"}, {"measurement": "concentration of the compound in the lung", "setting": "[6]", "result": "relatively very low"}, {"measurement": "concentration of the compound in the plasma", "setting": "[6]", "result": "relatively very low"}, {"measurement": "inhibitory activity against CYP2C9 (in words)", "setting": "[7]", "result": "slight inhibitory activity"}, {"measurement": "IC50", "setting": "[8]", "result": 5.54, "unit": "µM"}]}]}
